# Test results published in patent USRE40086E1, “Method for treating bacterial infection with novel 7-substituted-9-substituted amino 6-demethyl-6-deoxytetracyclines” (Wyeth Holdings Corporation, priority 1991, dated 2008).
# Columns and labels:
# Type in all cases: cell-based
# E. coli MC4100 TetB = experiment: MIC, agar dilution (Table IA); conditions: unit assumed
# [1] = system: S. aureus UBMS 88-7 (tetK); experiment: MIC, agar dilution; conditions: for MIC: S. aureus UBMS 88-7 (tetK)
# E. faecalis 12201 = experiment: MIC, agar dilution; conditions: for MIC: E. faecalis 12201
# E. coli ATCC 25922 = experiment: MIC, agar dilution; conditions: E. coli ATCC 25922
# E. coli PRP1 TetA = experiment: MIC, agar dilution (Table IA); conditions: unit assumed
# E. coli UBMS 90-5 = experiment: MIC, agar dilution (Table IA); conditions: unit assumed
# E. coli J3272 TetC = experiment: MIC, agar dilution (Table IA); conditions: unit assumed
# [2] = system: S. aureus ATCC 29213 (Sensitive); experiment: MIC, agar dilution; conditions: for MIC: S. aureus ATCC 29213 (Sensitive)
# E. coli UBMS 88-1 (tetB) = experiment: MIC, agar dilution; conditions: for MIC: E. coli UBMS 88-1 (tetB)
# [3] = system: S. aureus UBMS 90-2 (tetM); experiment: MIC, agar dilution; conditions: for MIC: S. aureus UBMS 90-2 (tetM)
# E. coli J3272 TetD = experiment: MIC, agar dilution (Table IA); conditions: unit assumed
# S. mariescens FDOR 8733 = experiment: MIC, agar dilution (Table IA); conditions: unit assumed
# [4] = system: S. aureus UBMS 90-1 (tetM); experiment: MIC, agar dilution; conditions: for MIC: S. aureus UBMS 90-1 (tetM)
# [5] = system: S. haemolyticus AVAH 88-3; experiment: MIC, agar dilution; conditions: for MIC: S. haemolyticus AVAH 88-3
# E. coli J3272 Tet sens. = experiment: MIC, agar dilution (Table IA); conditions: unit assumed
# [6] = system: S. aureus IVES 1983 (meth. resistant); experiment: MIC, agar dilution; conditions: for MIC: S. aureus IVES 1983 (meth. resistant)
# [7] = system: E. coli UBMS 89-2 (Sensitive); experiment: MIC, agar dilution; conditions: for MIC: E. coli UBMS 89-2 (Sensitive)
# E. coli #311 (MP) = experiment: MIC, agar dilution (Table IA); conditions: unit assumed
# [8] = system: S. aureus UBMS 90-3 (Sensitive); experiment: MIC, agar dilution; conditions: for MIC: S. aureus UBMS 90-3 (Sensitive)
# [9] = system: S. aureus IVES 2943 (meth. resistant); experiment: MIC, agar dilution; conditions: for MIC: S. aureus IVES 2943 (meth. resistant)
# S. aureus ROSE (MP) = experiment: MIC, agar dilution (Table IA); conditions: unit assumed
# [10] = system: S. aureus UBMS 88-5 (tetM); experiment: MIC, agar dilution; conditions: for MIC: S. aureus UBMS 88-5 (tetM)
# [11] = system: X. maltophilia NEMC 87210; experiment: MIC, agar dilution (Table IA); conditions: unit assumed
# [12] = system: Ps. acruginosa ATCC 27853; experiment: MIC, agar dilution (Table IA); conditions: unit assumed
# E. coli J2175 = experiment: MIC, agar dilution (Table IA); conditions: unit assumed
# S. aureus NEMC 8769/89-4 = experiment: MIC, agar dilution (Table IA); conditions: unit assumed
# E. coli BAJ9003 = experiment: MIC, agar dilution (Table IA); conditions: unit assumed
# E. coli UBMS 89-1 (tetM) = experiment: MIC, agar dilution; conditions: for MIC: E. coli UBMS 89-1 (tetM)
# [13] = system: S. aureus Smith (Sensitive); experiment: MIC, agar dilution; conditions: for MIC: S. aureus Smith (Sensitive)
# [14] = system: S. aureus UBMS 88-4 (Sensitive); experiment: MIC, agar dilution; conditions: for MIC: S. aureus UBMS 88-4 (Sensitive)
# E. faecalis ATCC 29212 = experiment: MIC, agar dilution; conditions: E. faecalis ATCC 29212
# [15] = system: E. coli UBMS 88-2 (Sensitive); experiment: MIC, agar dilution; conditions: E. coli UBMS 88-2 (Sensitive)
smiles,measurement,setting,value
"CN(C)c1cc(NC(=O)CBr)c(O)c2c1CC1CC3[C@H](N(C)C)C(O)=C(C(N)=O)C(=O)[C@@]3(O)C(O)=C1C2=O.Cl.Cl (stereo partly drawn) [III, [4S-(4alpha,12aalpha)]-9-[(Bromoacetyl)amino)-4,7-bis(dimethylamino)-1,4,4a,5,5a,6,11,12a-octahydro-3,10,12,12a-tetrahydroxy-1,11-dioxo-2-naphthacenecarboxamide dihydrochloride]",Antibacterial activity (MIC),E. coli MC4100 TetB,> 32 µg/mL
same,Antibacterial activity (MIC),"[1]; S. aureus UBMS 88-7 TetK, Table IA, unit assumed",2 µg/mL
same,Antibacterial activity (MIC),"E. faecalis 12201; Enterococcus 12201, Table IA, unit assumed",1 µg/mL
same,Antibacterial activity (MIC),"E. coli ATCC 25922; Table IA, unit assumed",16 µg/mL
same,Antibacterial activity (MIC),E. coli PRP1 TetA,> 32 µg/mL
same,Antibacterial activity (MIC),E. coli UBMS 90-5,16 µg/mL
same,Antibacterial activity (MIC),E. coli J3272 TetC,> 32 µg/mL
same,Antibacterial activity (MIC),"[2]; S. aureus ATCC 29213, Table IA, unit assumed",0.5 µg/mL
same,Antibacterial activity (MIC),"E. coli UBMS 88-1 (tetB); E. coli UBMS 88-1 TetB, Table IA, unit assumed",> 32 µg/mL
same,Antibacterial activity (MIC),"[3]; S. aureus UBMS 90-2 TetM, Table IA, unit assumed",0.5 µg/mL
same,Antibacterial activity (MIC),E. coli J3272 TetD,32 µg/mL
same,Antibacterial activity (MIC),S. mariescens FDOR 8733,> 32 µg/mL
same,Antibacterial activity (MIC),"[4]; S. aureus UBMS 90-1 TetM, Table IA, unit assumed",1 µg/mL
same,Antibacterial activity (MIC),"[5]; S. hemolyticus AVHAH 88-3, Table IA, unit assumed",2 µg/mL
same,Antibacterial activity (MIC),E. coli J3272 Tet sens.,16 µg/mL
same,Antibacterial activity (MIC),"[6]; S. aureus IVES 1983, Table IA, unit assumed",4 µg/mL
same,Antibacterial activity (MIC),"[7]; E. coli UBMS 89-2 Tet Sens., Table IA, unit assumed",32 µg/mL
same,Antibacterial activity (MIC),E. coli #311 (MP),8 µg/mL
same,Antibacterial activity (MIC),"[8]; S. aureus UBMS 90-3, Table IA, unit assumed",0.5 µg/mL
same,Antibacterial activity (MIC),"[9]; S. aureus IVES 2943, Table IA, unit assumed",4 µg/mL
same,Antibacterial activity (MIC),S. aureus ROSE (MP),8 µg/mL
same,Antibacterial activity (MIC),"[10]; S. aureus UBMS 88-5 TetM, Table IA, unit assumed",1 µg/mL
same,Antibacterial activity (MIC),[11],4 µg/mL
same,Antibacterial activity (MIC),[12],> 32 µg/mL
same,Antibacterial activity (MIC),E. coli J2175,32 µg/mL
same,Antibacterial activity (MIC),S. aureus NEMC 8769/89-4,0.12 µg/mL
same,Antibacterial activity (MIC),E. coli BAJ9003,0.25 µg/mL
same,Antibacterial activity (MIC),"E. coli UBMS 89-1 (tetM); E. coli UBMS 89-1 TetM, Table IA, unit assumed",4 µg/mL
same,Antibacterial activity (MIC),"[13]; S. aureus SMITH (MP), Table IA, unit assumed",0.5 µg/mL
same,Antibacterial activity (MIC),"[14]; S. aureus UBMS 88-4, Table IA, unit assumed",0.5 µg/mL
same,Antibacterial activity (MIC),"E. faecalis ATCC 29212; Table IA, unit assumed",0.5 µg/mL
"CN(C)c1cc(NC(=O)c2ccc([N+](=O)[O-])cc2)c(O)c2c1CC1CC3C(N(C)C)C(O)=C(C(N)=O)C(=O)C3(O)C(O)=C1C2=O (stereo not shown) [V, 7-(Dimethylamino)-9-[(4-nitrobenzoyl)amino]-6-demethyl-6-deoxytetracycline]",MIC,[1],4 µg/mL
same,MIC,E. faecalis 12201,4 µg/mL
same,MIC,E. coli ATCC 25922,>32 µg/mL
same,MIC,[2],0.25 µg/mL
same,MIC,E. coli UBMS 88-1 (tetB),>32 µg/mL
same,MIC,[3],1 µg/mL
same,MIC,[4],2 µg/mL
same,MIC,[5],4 µg/mL
same,MIC,[6],8 µg/mL
same,MIC,[7],>32 µg/mL
same,MIC,[8],0.5 µg/mL
same,MIC,[9],4 µg/mL
same,MIC,[15],>32 µg/mL
same,MIC,[10],2 µg/mL
same,MIC,E. coli UBMS 89-1 (tetM),>32 µg/mL
same,MIC,[13],0.5 µg/mL
same,MIC,[14],2 µg/mL
same,MIC,E. faecalis ATCC 29212,4 µg/mL
"CN(C)c1ccc(C(=O)Nc2cc(N(C)C)c3c(c2O)C(=O)C2=C(O)[C@]4(O)C(=O)C(C(N)=O)=C(O)[C@@H](N(C)C)[C@@H]4C[C@@H]2C3)cc1 [W, 7-(Dimethylamino)-9-[[(4-dimethylamino)benzoyl)amino)-6-demethyl-6-deoxytetracycline]",MIC,[1],16 µg/mL
same,MIC,E. faecalis 12201,16 µg/mL
same,MIC,E. coli ATCC 25922,>32 µg/mL
same,MIC,[2],2 µg/mL
same,MIC,E. coli UBMS 88-1 (tetB),>32 µg/mL
same,MIC,[3],8 µg/mL
same,MIC,[4],16 µg/mL
same,MIC,[5],16 µg/mL
same,MIC,[6],8 µg/mL
same,MIC,[7],>32 µg/mL
same,MIC,[8],8 µg/mL
same,MIC,[9],8 µg/mL
same,MIC,[15],>32 µg/mL
same,MIC,[10],32 µg/mL
same,MIC,E. coli UBMS 89-1 (tetM),>32 µg/mL
same,MIC,[13],4 µg/mL
same,MIC,[14],8 µg/mL
same,MIC,E. faecalis ATCC 29212,8 µg/mL
